For experiment [1], the system named is methicillin-resistant Staphylococcus aureus (MRSA). Put plainly: Antibacterial activity, agar well diffusion method. It is filed as cell-based. The conditions noted are these: 50 μg of each compound per well, 8-mm wells, read-out: Diameter of inhibition zone. The protocol:
Methicillin-resistant Staphylococcus aureus (MRSA), extended spectrum beta-lactamase-producing Escherichia coli (ESBL-producing E. coli) and the agar well diffusion method were used to evaluate the antibacterial activity of the isolated compounds [29]. The strains were cultured in nutrient broth at 37 °C for 18 h and diluted with steriled 0.9% NaCl to obtain the 1.5 × 10^8 CFU/mL bacterial solution. Then, 100 μL of the bacterial solution was spread on Mueller–Hinton agar (MHA) plate on which 8-mm wells were created aseptically with tips. The isolated compounds were dissolved in dimethyl sulfoxide at the concentration of 1 mg/mL and 50 μL of each compound solution was applied in each well. The plates were incubated at 37 °C for 16–18 h and the diameters of the inhibtion zones were measured. Dimethyl sulfoxide and apramycin were used as controls in this experiment.
In general terms: Agar diffusion results depend on both activity and mobility in agar.

The target in experiment [2] is T1, alpha-glucosidase (Saccharomyces cerevisiae, UniProt P53341). The experiment can be described thus: Inhibitory type assay on alpha-glucosidase (Lineweaver–Burk plots). It counts as biochemical. Particulars: Vmax decreased while Km remained constant. The protocol: In order to examine the inhibition mechanism of compound 11, their activity was measured at the different concentration of pNPG.
Enzyme inhibition due to various concentrations of the 8 and 11 compounds were evaluated by monitoring the effects of different concentrations of the substrate. For Lineweaver–Burk double reciprocal plots 1/enzyme velocity (1/V) vs. 1/substrate concentration (1/[S]), the inhibition type was determined using various concentrations of pNPG (1 mM, 2 mM, and 4 mM) as a substrate in the presence of different concentrations of the test compounds (0; 4.96; 9.92 and 19.84 µM for 8 and 0; […]; 43.03 and 86.06 µM for 11). The experiments were carried out in 3 replicates. The mixtures were incubated at 37 °C and the optical density was measured at 405 nm every 1 min for 30 min with the Clariostar Labtech microplate reader (Ortenberg, Germany). Optimal concentrations of the tested compound were chosen based on the IC50 value. The inhibition constants were obtained graphically from secondary plots (Microsoft Excel 2010, Washington, WA, USA).

Experiment [3] deals with T1, alpha-glucosidase. Put plainly: Alpha-glucosidase inhibition assay (pNPG substrate). It counts as biochemical. The conditions noted are these: means ± standard errors of three independent experiments; read-out: Alpha-glucosidase inhibitory IC50. The method, then: The alpha-glucosidase (0.2 U/mL) and substrate (5.0 mM p-nitrophenyl-α-D-glucopyranoside) were dissolveed in 100 mM of pH 6.9 sodium phosphate buffer. The inhibitor (50 µL) was preincubated with alpha-glucosidase at 37 °C for 20 min, and then the substrate (40 µL) was added to the reaction mixture. The enzymatic reaction was carried out at 37 °C for 20 min and stopped by adding 0.2 M of Na2CO3 (130 μL). Enzymatic activity was quantified by measuring absorbance at 405 nm. All samples were analyzed in triplicate at five different concentrations around the IC50 values, and the mean values were retained. The inhibition percentage (%) was calculated by the following equation: Inhibition (%)=[1−(Asample/Acontrol)]×100. .

pIC50: −log10 of the molar value. Bounds are passed on as bounds.

T1 sequence (P53341 whole entry): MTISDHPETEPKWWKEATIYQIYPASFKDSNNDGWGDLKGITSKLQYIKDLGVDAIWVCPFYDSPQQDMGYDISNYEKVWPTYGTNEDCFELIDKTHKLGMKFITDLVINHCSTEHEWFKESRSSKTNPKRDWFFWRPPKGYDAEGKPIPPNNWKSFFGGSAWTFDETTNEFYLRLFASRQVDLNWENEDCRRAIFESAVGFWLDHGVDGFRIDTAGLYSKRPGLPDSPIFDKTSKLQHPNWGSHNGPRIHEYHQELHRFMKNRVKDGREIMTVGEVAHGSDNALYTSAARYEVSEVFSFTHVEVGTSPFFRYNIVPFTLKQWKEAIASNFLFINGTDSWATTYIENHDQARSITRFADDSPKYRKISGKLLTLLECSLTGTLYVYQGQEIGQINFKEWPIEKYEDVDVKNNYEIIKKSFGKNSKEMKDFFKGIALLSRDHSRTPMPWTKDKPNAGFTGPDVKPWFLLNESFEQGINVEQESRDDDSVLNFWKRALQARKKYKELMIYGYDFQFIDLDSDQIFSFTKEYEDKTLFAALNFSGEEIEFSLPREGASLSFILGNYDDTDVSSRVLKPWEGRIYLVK

By zone of inhibition is commonly meant the size of the clear area around the sample on an inoculated plate. Take `COc1cc(O)c2c(=O)c(O)c(-c3ccc(OC)c(O)c3)oc2c1` [Compound 5, ombuin]: the zone of inhibition at 50 µg/disc in experiment [1] was 15 mm.

For the molecule `COc1c(O)cc(-c2oc3c(Br)c(OC)c(Br)c(O)c3c(=O)c2OC)cc1Br` [Compound 8, 6,8,5′-Tribromoayanin], in experiment [2], the Inhibition type entry is given as “noncompetitive”.

Take `COc1c(Br)c(O)c2c(=O)c(OC)c(-c3cc(Br)c(O)c(Br)c3)oc2c1Br` [Compound 11, 6,8,3′,5′-Tetrabromokamatakenin]: the Inhibition type result in experiment [2] is given as “noncompetitive”.

For `CN[C@@H]1[C@@H](O[C@H]2O[C@H](CO)[C@@H](N)[C@H](O)[C@H]2O)OC2C[C@@H](N)[C@@H](O[C@H]3[C@H](O)[C@@H](O)[C@H](N)C[C@@H]3N)OC2[C@@H]1O` (stereo partly drawn) [apramycin, reference compound], the zone of inhibition at 50 µg/disc in experiment [1] turned out to be 24 mm.

As a reminder, the pIC50 is the IC50 on a negative log10 scale, so that one unit is a factor of ten. Take isoorientin [Compound 15]: the pIC50 in experiment [3] was < 3.52.

With vitexin [Compound 16], in experiment [3], the pIC50 is < 3.52.

(Values after publication PMC8123651, “Flavones from Combretum quadrangulare Growing in Vietnam and Their Alpha-Glucosidase Inhibitory Activity” (Molecules, 2021).)
